# Structures can show the parent of a compound that is named as a salt. Where two headings read alike, the source gives them in different places.
# Columns and labels:
# rat spinal cord cultures = experiment: Neuroprotection against substance P or glutamate toxicity in primary spinal cord cultures (LDH release); type: cell-based; conditions: for block of SP-induced toxicity: SP 30 μM, spantide II 100 μM, MK-801
# [1] = target: T1, neuronal nicotinic acetylcholine receptors (Rattus norvegicus, UniProt P09483+P12390); experiment: [3H]-cytisine binding to neuronal nicotinic acetylcholine receptors, whole rat brain membranes
# T1 construct: crude synaptic membrane preparations from whole rat brain; from tissue; host or cells: whole rat brain, crude synaptic membranes
# T1 sequence (P09483 31-630): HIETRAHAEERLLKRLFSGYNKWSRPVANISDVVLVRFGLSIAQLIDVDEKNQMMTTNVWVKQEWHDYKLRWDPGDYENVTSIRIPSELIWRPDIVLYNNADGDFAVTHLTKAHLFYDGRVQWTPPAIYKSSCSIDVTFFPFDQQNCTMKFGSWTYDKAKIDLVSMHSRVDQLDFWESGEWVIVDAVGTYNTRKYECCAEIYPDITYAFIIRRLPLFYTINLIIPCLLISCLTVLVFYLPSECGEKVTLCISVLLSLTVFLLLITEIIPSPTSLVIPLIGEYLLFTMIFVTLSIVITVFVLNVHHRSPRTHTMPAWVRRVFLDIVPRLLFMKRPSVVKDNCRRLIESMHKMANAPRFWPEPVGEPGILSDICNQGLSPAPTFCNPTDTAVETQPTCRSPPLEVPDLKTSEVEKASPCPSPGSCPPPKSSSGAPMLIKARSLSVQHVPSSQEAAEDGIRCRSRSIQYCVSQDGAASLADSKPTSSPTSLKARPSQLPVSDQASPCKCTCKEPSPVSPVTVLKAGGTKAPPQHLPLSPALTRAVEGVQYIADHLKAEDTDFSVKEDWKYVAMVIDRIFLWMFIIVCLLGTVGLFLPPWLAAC
# T1 sequence (P12390 25-500): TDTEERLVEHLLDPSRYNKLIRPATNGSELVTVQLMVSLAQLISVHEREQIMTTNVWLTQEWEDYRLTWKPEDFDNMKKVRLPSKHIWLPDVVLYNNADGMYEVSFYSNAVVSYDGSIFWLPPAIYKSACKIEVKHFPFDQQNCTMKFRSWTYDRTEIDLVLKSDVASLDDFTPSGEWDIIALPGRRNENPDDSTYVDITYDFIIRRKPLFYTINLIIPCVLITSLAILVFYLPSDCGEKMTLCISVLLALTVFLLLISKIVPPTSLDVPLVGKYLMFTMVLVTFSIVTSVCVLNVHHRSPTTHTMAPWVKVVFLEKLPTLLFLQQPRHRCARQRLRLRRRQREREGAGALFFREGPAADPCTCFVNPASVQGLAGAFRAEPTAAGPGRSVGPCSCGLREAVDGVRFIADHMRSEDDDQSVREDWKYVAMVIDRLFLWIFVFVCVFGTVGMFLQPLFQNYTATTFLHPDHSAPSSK
# Experimental: Protocol for Determination of Nicotinic Acetylcholine Channel Receptor Binding Potencies of Ligands
# Binding of [^3H]-cytisine ([^3H]-CYT) to neuronal nicotinic acetylcholine receptors was accomplished using crude synaptic membrane preparations from whole rat brain (Pabreza et al., Molecular Pharmacol., 1990, 39:9). Washed membranes were stored at −80° C. prior to use. Frozen aliquots were slowly thawed and resuspended in 20 volumes of buffer (containing: 120 mM NaCl, 5 mM KCl, 2 mM MgCl2, 2 mM CaCl2 and 50 mM Tris-Cl, pH 7.4 @4° C.). After centrifuging at 20,000×g for 15 minutes, the pellets were resuspended in 30 volumes of buffer. Homogenate (containing 125-150 μg protein) was added to triplicate tubes containing concentrations of test compound and [^3H]-CYT (1.25 nM) in a final volume of 500 μL. Samples were incubated for 60 minutes at 4° C., then rapidly filtered through Whatman GF/B filters presoaked in 0.5% polyethyleneimine using 3×4 mL of ice-cold buffer. The filters are counted in 4 mL of Ecolume® (ICN). Nonspecific binding was determined in the presence of 10 μM (−)-nicotine and values were expressed as a percentage of total binding.
# [2] = target: T2, peripheral ganglionic receptors (Homo sapiens, UniProt P30926+P32297); experiment: 86Rb+ flux activation in IMR-32 human neuroblastoma cells; type: cell-based; conditions: 1 μM compound, % of maximum response to (S)-nicotine
# T2 construct: Cells of the IMR-32 human neuroblastoma clonal cell line (ATCC, Rockville, Md.); host or cells: IMR-32 human neuroblastoma cells
# T2 sequence (P32297 32-505): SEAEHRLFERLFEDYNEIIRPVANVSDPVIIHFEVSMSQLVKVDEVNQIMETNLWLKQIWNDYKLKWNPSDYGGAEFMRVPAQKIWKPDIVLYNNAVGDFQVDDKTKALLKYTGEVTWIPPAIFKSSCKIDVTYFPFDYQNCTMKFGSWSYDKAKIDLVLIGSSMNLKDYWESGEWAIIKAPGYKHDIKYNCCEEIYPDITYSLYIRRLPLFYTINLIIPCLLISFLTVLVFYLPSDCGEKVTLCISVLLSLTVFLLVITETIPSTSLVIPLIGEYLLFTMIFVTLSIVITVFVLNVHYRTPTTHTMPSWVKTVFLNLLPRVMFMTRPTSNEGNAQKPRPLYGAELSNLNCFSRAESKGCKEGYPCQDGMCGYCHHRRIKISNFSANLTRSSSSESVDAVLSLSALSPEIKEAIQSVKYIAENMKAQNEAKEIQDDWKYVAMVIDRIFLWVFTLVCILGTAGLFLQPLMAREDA
# T2 sequence (P30926 22-498): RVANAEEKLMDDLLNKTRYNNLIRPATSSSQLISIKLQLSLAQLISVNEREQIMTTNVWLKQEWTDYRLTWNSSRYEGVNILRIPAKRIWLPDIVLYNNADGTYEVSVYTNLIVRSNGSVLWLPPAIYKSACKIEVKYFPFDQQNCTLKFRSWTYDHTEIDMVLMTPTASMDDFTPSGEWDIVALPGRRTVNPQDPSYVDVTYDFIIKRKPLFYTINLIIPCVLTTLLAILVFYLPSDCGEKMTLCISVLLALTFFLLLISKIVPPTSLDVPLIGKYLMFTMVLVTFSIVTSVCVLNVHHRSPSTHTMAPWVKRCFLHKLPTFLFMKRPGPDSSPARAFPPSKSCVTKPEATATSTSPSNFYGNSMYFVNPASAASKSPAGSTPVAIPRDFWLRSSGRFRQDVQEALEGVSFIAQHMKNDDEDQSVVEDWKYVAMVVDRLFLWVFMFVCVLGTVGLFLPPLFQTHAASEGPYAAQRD
# Experimental: Protocol for the Determination of Ability of Nicotinic Acetylcholine Receptor Ligands to Activate Peripheral Ganglionic Receptors
# Cells of the IMR-32 human neuroblastoma clonal cell line (ATCC, Rockville, Md.) were maintained in a log phase of growth according to established procedures. Experimental cells were seeded at a density of 500,000 cells/mL into a 24-well tissue culture dish. Plated cells were allowed to proliferate for at least 48 hours before loading with 2 μCi/mL of ^86Rb^+ (35 Ci/mmol) overnight at 37° C. The ^86Rb^+ efflux assays were performed according to previously published protocols (Lukas, R. J., J. Pharmacol. Exp. Ther., 265: 294-302, 1993) except serum-free Dulbecco's Modified Eagle's Medium was used during the ^86Rb^+ loading, rinsing, and agonist-induced efflux steps. Data reflect the activation of ^86Rb^+ flux at a concentration of 1 μM, and reflect the response as a percentage of the maximum response elicited by (S)-nicotine.
# mice = experiment: Mouse Hot Plate Paradigm; type: in vivo; parameters: key to MED Hot plate model (μmol/kg, i.p.): NS = no significant effect observed relative to saline controls at the doses tested; conditions: 30 minutes prior to testing, 55° C.; for minimal effective dose: ip, 0.5 h, i.p., read-out: MED Hot plate model (μmol/kg, i.p.)
# [3] = [3H]-cytisine 1.25 nM, whole rat brain membranes, read-out: [3H] CYT Ki
Molecule,melting point,further results
spantide II,,block of SP-induced toxicity (rat spinal cord cultures): blocked
"Cc1cncc(OC[C@@H]2CCN2)c1 [Example 13, 5-Methyl-3-((2S)-Azetidinylmethyloxy)pyridine dibenzoate]",,"Ki [1, 3]: 0.05 nM; IMR-32 % maximal nicotine response at 1 μM Cmpd conc'n [2]: 27%; MED Hot plate model (μmol/kg, i.p.) (mice): NS"
"Cc1ccc(OC[C@H]2CCN2)cn1 (as salt: HCl) [Example 115, 6-Methyl-3-(2-(R)-azetidinylmethoxy)pyridine]",134 to 136 °C,
CCN1C[C@]2(COC(=O)c3ccccc3N3C(=O)C[C@H](C)C3=O)CC[C@H](OC)[C@@]34[C@@H]5C[C@H]6[C@H](OC)[C@@H]5[C@](O)(C[C@@H]6OC)[C@@](O)([C@@H](OC)[C@H]23)[C@@H]14 [methyllycaconitine],,"block of the neuroprotective effect by nicotinic antagonists (rat spinal cord cultures; mecamylamine 10 μM, MLA 10 nM, α-BTX 1 nM): blocked"
"C=Cc1cc(OC[C@@H]2CCN2)cnc1Cl (as salt: hydrochloride) [Example 26, 2-Chloro-3-vinyl-5-((2S)-azetidinylmethoxy)pyridine hydrochloride]",121 °C (dec.),
"Cc1ccc(OC[C@@H]2CCN2)cn1 (as salt: hydrochloride) [Example 20, 5-((2S)-Azetidinylmethyloxy)-2-methylpyridine dihydrochloride]",141 to 144 °C,
"Fc1cncc(OC[C@H]2CCN2)c1 (as salt: salt) [Example 11, 5-((2R)-Azetidinylmethyloxy)-3-fluoropyridine dibenzoate]",163 to 165 °C,
C[C@]12N[C@H](Cc3ccccc31)c1ccccc12 [MK-801],,"block of Glu-induced toxicity (rat spinal cord cultures; Glu 300 μM, MK-801 1 μM): blocked; block of SP-induced toxicity (rat spinal cord cultures): cannot prevent"
"CCc1cc(OC[C@@H]2CCN2)cnc1F (as salt: tosylate) [Example 126, 5-ethyl-6-fluoro-3-(2-(S)-azetidinylmethoxy)pyridine]",106 to 108 °C,
"Cl.O=[N+]([O-])c1cncc(OC[C@@H]2CCN2)c1 [Example 132, 5-nitro-3-(2-(S)-azetidinylmethoxy)pyridine hydrochloride]",162 to 164 °C (dec.),"Ki [1, 3]: 0.33 nM"
"Clc1cc(OC[C@@H]2CCN2)cnc1Cl (as salt: hydrochloride) [Example 15, 5-((2S)-azetidinylmethoxy)-2,3-dichloropyridine hydrochloride]",181 to 182 °C,
"C#Cc1cc(OC[C@@H]2CCN2)cnc1Cl (as salt: hydrochloride) [Example 30, 2-Chloro-3-ethynyl-5-((2S)-azetidinylmethoxy)pyridine hydrochloride]",90 °C (dec.),
"Cc1cncc(OC[C@H]2CCN2)c1 [Example 14, 5-Methyl-3-((2R)-azetidinylmethyloxy)pyridine hydrochloride]",,"Ki [1, 3]: 0.18 nM; IMR-32 % maximal nicotine response at 1 μM Cmpd conc'n [2]: 15%; minimal effective dose (mice): 62 µmol/kg"
"Clc1ncc(OC[C@@H]2CCN2)cc1Br (as salt: hydrochloride) [Example 17, 5-((2S)-azetidinylmethoxy)-3-bromo-2-chloropyridine hydrochloride]",168 to 169 °C,
"Cc1cc(OC[C@@H]2CCN2)cnc1F (as salt: salt) [Example 32, 5-((2S)-azetidinylmethoxy)-3-methyl-2-fluoropyridine benzoate]",104 to 108 °C,
"Fc1cncc(OC[C@@H]2CCN2)c1 (as salt: hydrochloride) [Example 10, 5-((2S)-Azetidinylmethyloxy)-3-fluoropyridine dihydrochloride]",165 to 167 °C,
"C=Cc1cc(OC[C@@H]2CCN2)cnc1C (as salt: hydrochloride) [Example 35, 6-Methyl-5-vinyl-3-((2S)-azetidinylmethoxy)pyridine hydrochloride]",154 to 155 °C,
"Fc1cncc(OC[C@H]2CCN2)c1 [Example 11, 5-((2R)-Azetidinylmethyloxy)-3-fluoropyridine dibenzoate]",,"Ki [1, 3]: 0.34 nM; IMR-32 % maximal nicotine response at 1 μM Cmpd conc'n [2]: 31%; MED Hot plate model (μmol/kg, i.p.) (mice): NS"

Molecule,melting point,further results
"Fc1ncc(OC[C@H]2CCN2)cc1Br (as salt: tosylate) [Example 125, 5-bromo-6-fluoro-3-(2-(R)-azetidinylmethoxy)pyridine]",238 to 240 °C,
"Fc1ncc(OCC2CCN2)cc1Cl (centres unmarked) (as salt: tosylate) [Example 33, 5-((29)-azetidinylmethoxy)-3-chloro-2-fluoropyridine tosylate]",99 °C,
"Clc1ncc(OC[C@H]2CCN2)cc1Br [Example 18, 5-((2R)-azetidinylmethoxy)-3-bromo-2-chloropyridine hydrochloride]",,"Ki [1, 3]: 0.02 nM; IMR-32 % maximal nicotine response at 1 μM Cmpd conc'n [2]: 93%; minimal effective dose (mice): 0.62 µmol/kg"
"CCCc1cc(OC[C@@H]2CCN2)cnc1Cl (as salt: hydrochloride) [Example 28, 2-Chloro-3-propyl-5-((2S)-azetidinylmethoxy)pyridine hydrochloride]",148 to 150 °C,
"Brc1cncc(OC[C@@H]2CCN2)c1 (as salt: hydrochloride) [Example 12, 5-((2S)-Azetidinylmethyloxy)-3-bromopyridine dihydrochloride]",163 to 165 °C,
α-bungarotoxin,,block of the neuroprotective effect by nicotinic antagonists (rat spinal cord cultures): blocked
"Clc1ncc(OC[C@H]2CCN2)cc1Br (as salt: hydrochloride) [Example 18, 5-((2R)-azetidinylmethoxy)-3-bromo-2-chloropyridine hydrochloride]",175 °C,
"CCc1cc(OC[C@@H]2CCN2)cnc1C (as salt: hydrochloride) [Example 36, 6-Ethyl-6-methyl-3-((2S)-azetidinylmethoxy)pyridine hydrochloride]",150 to 153 °C,
"Fc1ccc(OC[C@@H]2CCN2)c(F)n1 (as salt: tosylate) [Example 116, 2.6-Difluoro-3-(2-(S)-azetidinylmethoxy)pyridine tosylate]",140 to 143 °C,
"CCc1cc(OC[C@@H]2CCN2)cnc1Cl (as salt: hydrochloride) [Example 27, 2-Chloro-3-ethyl-5-((2S)-azetidinylmethoxy)pyridine hydrochloride]",102 to 104 °C,
"CCCCc1cc(OC[C@@H]2CCN2)cnc1Cl (as salt: hydrochloride) [Example 29, 3-Butyl-2-chloro-5-((2S)-azetidinylmethoxy)pyridine hydrochloride]",88 to 90 °C,
"Brc1cncc(OC[C@@H]2CCN2)c1 [Example 12, 5-((2S)-Azetidinylmethyloxy)-3-bromopyridine dihydrochloride]",,"Ki [1, 3]: 0.26 nM; MED Hot plate model (μmol/kg, i.p.) (mice): NS"
"c1cncc(OC[C@@H]2CCN2)c1 [Example 7, (S)-3-(2-Azetidinylmethyloxy)pyridine dihydrochloride]",,Ki [1]: 0.04 nM; minimal effective dose (mice): 6.2 µmol/kg
"C=Cc1cncc(OC[C@@H]2CCN2)c1 (as salt: hydrochloride) [Example 22, 5-Vinyl-3-((2S)-Azetidinylmethyloxy)lpyridine dihydrochloride]",88 to 90 °C,
"COc1ccc(OC[C@H]2CCN2)cn1 [Example 119, 6-Methoxy-3-(2(R)-azetidinylmethoxy)pyridine]",139 to 142 °C,"Ki [1, 3]: 0.67 nM"
"Clc1cc(OC[C@H]2CCN2)cnc1Cl (as salt: hydrochloride) [Example 16, 5-((2R)-azetidinylmethoxy)-2,3-dichloropyridine hydrochloride]",166 to 168 °C,
"CCCc1cncc(OC[C@@H]2CCN2)c1 (as salt: hydrochloride) [Example 24, 5-Propyl-3-((2S)-azetidinylmethyloxy)lpyridine hydrochloride]",79 to 80 °C,
"CCCc1cncc(OC[C@@H]2CCN2)c1 [Example 24, 5-Propyl-3-((2S)-azetidinylmethyloxy)lpyridine hydrochloride]",,"Ki [1, 3]: 0.05 nM; minimal effective dose (mice): 62 µmol/kg"
